The results in this text go back to PubChem BioAssay (NCI).

Among the test systems are SW-620 colon; T-47D breast; COLO 205 colon; K-562 leukemia; SN12C renal; HL-60(TB) leukemia; CAKI-1 renal; IGROV1 ovarian; PC-3 prostate; HS 578T breast.
What all share (test): inhibition of tumour cell growth, NCI panel, 48 h

“And” between values parts separate entries of the source, which are not always exact repeats. Identical values can stand only once.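 1) Cells in 96-well plates. 2) Compound, 48 h, 5 concentrations. 3) Linear interpolation between surrounding doses. 4) Unreached endpoint = highest concentration. The concentration for 50% growth inhibition is given as GI50. At the TGI there is no net growth.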

On to `NNC(=O)C(O)C(O)C(O)CO` (stereo not given), for which the TGI with SW-620 colon, in the assay with T-47D breast, in the assay on COLO 205 colon, in the assay with K-562 leukemia, in the assay with SN12C renal and in the assay on HL-60(TB) leukemia was above 100 µM each time. For the same compound, the TGI in the assay with CAKI-1 renal, with IGROV1 ovarian, with PC-3 prostate and in the assay with HS 578T breast was above 100 µM throughout.

With `O=c1ncc(I)c[nH]1`, the GI50 with SW-620 colon, with T-47D breast, in the assay on COLO 205 colon, with K-562 leukemia, in the assay with SN12C renal and with HL-60(TB) leukemia was above 100 µM in each case. The GI50 in the assay with CAKI-1 renal, in the assay on IGROV1 ovarian, in the assay with PC-3 prostate and in the assay on HS 578T breast was above 100 µM in each case. Besides, the TGI in the assay on SW-620 colon, in the assay on T-47D breast, in the assay on COLO 205 colon, in the assay with K-562 leukemia, in the assay with SN12C renal and in the assay with HL-60(TB) leukemia was above 100 µM each time. The TGI in the assay with CAKI-1 renal, with IGROV1 ovarian, in the assay with PC-3 prostate and in the assay on HS 578T breast was above 100 µM throughout.

As for `CS(=O)(=O)c1nccc(-c2c(-c3cccc(OCc4ccccc4)c3)nc3sccn23)n1`, the GI50 in the assay on SW-620 colon is 4.67 µM; in the assay on T-47D breast, 11.7 µM; in the assay on COLO 205 colon, 25.3 µM; with K-562 leukemia, 5.29 µM; in the assay with SN12C renal it was 26.2 µM; in the assay with HL-60(TB) leukemia, 3.97 µM. Besides, the GI50 with CAKI-1 renal is 4.58 µM; in the assay with IGROV1 ovarian, 10.3 µM; in the assay on PC-3 prostate, 6.35 µM; with HS 578T breast it was 12.9 µM. In addition, the TGI in the assay on SW-620 colon was above 100 µM; in the assay on T-47D breast, above 100 µM; with COLO 205 colon it was above 100 µM; in the assay with K-562 leukemia, above 100 µM; in the assay with SN12C renal it was above 100 µM; in the assay with HL-60(TB) leukemia, 27 µM. The TGI in the assay on CAKI-1 renal was above 100 µM; in the assay on IGROV1 ovarian, above 100 µM; in the assay with PC-3 prostate it was above 26.8 µM; with HS 578T breast, above 100 µM.

Regarding `C[C@@]1([C@H](OC(=O)c2cccc3ccccc23)C(N)=O)CO1`, the GI50 is 1.1 µM with SW-620 colon; 5.31 µM with T-47D breast; 2.99 µM with COLO 205 colon; 1.13 µM in the assay on K-562 leukemia; 0.36 µM with SN12C renal; 5.56 µM with CAKI-1 renal. The GI50 is 0.779 µM with IGROV1 ovarian, 3.2 µM in the assay with PC-3 prostate and 3.59 µM with HS 578T breast. For the same compound, the TGI in the assay on T-47D breast was 24.8 µM; with COLO 205 colon it was 14.4 µM; with K-562 leukemia it was above 37.5 µM; with SN12C renal, 3.95 µM; with CAKI-1 renal, above 100 µM; in the assay on IGROV1 ovarian, 3.75 µM. Besides, the TGI in the assay on PC-3 prostate is 22.8 µM; in the assay on HS 578T breast it was above 24.6 µM.

With `CCC1CCC2C3CC=C4CC(OC(C)=O)C(N)CC4(C)C3CCC12C` (stereo not given), the TGI in the assay with SW-620 colon was 11.2 µM; in the assay with T-47D breast, 12.6 µM; in the assay with COLO 205 colon it was 10 µM; in the assay with K-562 leukemia it was 4.91 µM; in the assay on SN12C renal, 9.87 µM; with HL-60(TB) leukemia it was 4.48 µM. Moreover, the TGI in the assay with CAKI-1 renal turned out to be 22.9 µM; in the assay with IGROV1 ovarian, 18.2 µM; in the assay with PC-3 prostate, 7.97 µM; in the assay on HS 578T breast it was 5.1 µM.

Take `Cc1ccc(C(=O)Nc2ccc(CN3CCN(C)CC3)c(C(F)(F)F)c2)cc1C#Cc1cnc(N)c2ccc(C#N)cc12`: the GI50 in the assay on SW-620 colon was 1.8 µM; in the assay with T-47D breast it was 3.57 µM; with COLO 205 colon, 0.28 µM; with SN12C renal, 0.0164 µM; in the assay on HL-60(TB) leukemia, 0.338 µM; in the assay on CAKI-1 renal, 0.0865 µM. Also, the GI50 in the assay with IGROV1 ovarian was 0.0188 µM; in the assay on PC-3 prostate it was 2.09 µM; with HS 578T breast it was 0.161 µM. In addition, the TGI with SW-620 colon was above 28.3 µM; in the assay with T-47D breast it was above 50 µM; in the assay with COLO 205 colon, above 46.5 µM; in the assay with SN12C renal it was 3.07 µM; in the assay with HL-60(TB) leukemia, above 50 µM; in the assay on CAKI-1 renal, 8.48 µM. Moreover, the TGI in the assay on IGROV1 ovarian is 9.55 µM; in the assay on PC-3 prostate it was 13.8 µM; in the assay with HS 578T breast, above 23.9 µM.

Take `COc1ccc(-c2c(-c3cc4c(c(OC)c3OC)OCO4)noc2N)cc1`: the GI50 was 0.235 µM with SW-620 colon; 0.568 µM in the assay with T-47D breast; 0.277 µM with COLO 205 colon; 0.0688 µM in the assay with K-562 leukemia; 0.792 µM in the assay on SN12C renal; 0.214 µM in the assay with HL-60(TB) leukemia. For the same compound, the GI50 was 0.404 µM in the assay on CAKI-1 renal, 1.1 µM in the assay on IGROV1 ovarian, 0.321 µM in the assay with PC-3 prostate and 0.365 µM in the assay on HS 578T breast. Moreover, the TGI in the assay on SW-620 colon was above 100 µM; in the assay with T-47D breast, above 100 µM; in the assay with COLO 205 colon, 1.25 µM; in the assay on K-562 leukemia, above 100 µM; with SN12C renal it was above 100 µM; in the assay on HL-60(TB) leukemia, 1.46 µM. For the same compound, the TGI in the assay with CAKI-1 renal, in the assay with IGROV1 ovarian, with PC-3 prostate and in the assay with HS 578T breast was above 100 µM in each case.

Take `CC(C)C[C@H](NC(=O)[C@H](Cc1ccccc1)NC(=O)c1cnccn1)B(O)O`: the GI50 is 0.00121 µM in the assay on SW-620 colon; 0.00167 µM in the assay with T-47D breast; 0.00284 µM in the assay with COLO 205 colon; 0.00398 µM with K-562 leukemia; < 0.0114 µM and 0.00194 µM with SN12C renal; 0.00296 µM in the assay on HL-60(TB) leukemia. For the same compound, the GI50 with CAKI-1 renal was 0.00148 µM; in the assay on IGROV1 ovarian, 0.013 µM and 0.00385 µM; in the assay on PC-3 prostate, 0.0125 µM and 0.00364 µM; with HS 578T breast, < 0.01 µM and 0.00192 µM. Moreover, the TGI in the assay with T-47D breast is < 0.01 µM and 0.00411 µM; in the assay on COLO 205 colon, 1.31 µM and 0.217 µM; with K-562 leukemia, above 100 µM; in the assay with IGROV1 ovarian it was 0.137 µM and 0.102 µM and 0.15 µM; in the assay with PC-3 prostate it was 0.197 µM and 0.0952 µM and 0.106 µM.

`CCCCCCCCCCCCCCCCSS(C)(=O)=O`: the TGI was 13.2 µM in the assay with SW-620 colon; 24.1 µM with T-47D breast; 47.4 µM in the assay with COLO 205 colon; 27.9 µM in the assay with K-562 leukemia; above 69.5 µM in the assay with SN12C renal; 11.6 µM in the assay on HL-60(TB) leukemia. Moreover, the TGI was 26.1 µM with CAKI-1 renal, above 61.3 µM with IGROV1 ovarian, above 100 µM with PC-3 prostate and above 100 µM in the assay with HS 578T breast.
